Data from paper PMC6362118, “Pharmacophore-guided discovery of CDC25 inhibitors causing cell cycle arrest and tumor regression” (Scientific Reports, 2019).

Key:
DUSP22 = test: Compound profiling, phosphatase panel (Eurofins); assay type: biochemical; conditions: relative to DMSO
Excerpt: (§1) 125 Compound profiling - Selected compounds were profiled against a panel of protein
(§2) 126 phosphatases at Eurofins Pharma Discovery Services Ltd., Dundee, UK.

MKP5 (DUSP10) = test: Compound profiling, phosphatase panel (Eurofins); assay type: biochemical; conditions: relative to DMSO
Excerpt: as §1, §2

PP1a = test: Compound profiling, phosphatase panel (Eurofins); assay type: biochemical; conditions: relative to DMSO
Excerpt: as §1, §2

PP2A = test: Compound profiling, phosphatase panel (Eurofins); assay type: biochemical; conditions: relative to DMSO
Excerpt: as §1, §2

PTPN1 (PTP1B) = test: Compound profiling, phosphatase panel (Eurofins); assay type: biochemical; conditions: relative to DMSO
Excerpt: as §1, §2

PTPN11 (SHP-2) = test: Compound profiling, phosphatase panel (Eurofins); assay type: biochemical; conditions: relative to DMSO
Excerpt: as §1, §2

PTPN2 (TCPTP) = test: Compound profiling, phosphatase panel (Eurofins); assay type: biochemical; conditions: relative to DMSO
Excerpt: as §1, §2

PTPN22 = test: Compound profiling, phosphatase panel (Eurofins); assay type: biochemical; conditions: relative to DMSO
Excerpt: as §1, §2

PTPN4 (MEG1) = test: Compound profiling, phosphatase panel (Eurofins); assay type: biochemical; conditions: relative to DMSO
Excerpt: as §1, §2

PTPN6 (SHP-1) = test: Compound profiling, phosphatase panel (Eurofins); assay type: biochemical; conditions: relative to DMSO
Excerpt: as §1, §2

PTPN7 (HePTP) = test: Compound profiling, phosphatase panel (Eurofins); assay type: biochemical; conditions: relative to DMSO
Excerpt: as §1, §2

PTPN9 (MEG2) = test: Compound profiling, phosphatase panel (Eurofins); assay type: biochemical; conditions: relative to DMSO
Excerpt: as §1, §2

PTPRC (CD45) = test: Compound profiling, phosphatase panel (Eurofins); assay type: biochemical; conditions: relative to DMSO
Excerpt: as §1, §2

TMDP (DUSP13) = test: Compound profiling, phosphatase panel (Eurofins); assay type: biochemical; conditions: relative to DMSO
Excerpt: as §1, §2

VHR (DUSP3) = test: Compound profiling, phosphatase panel (Eurofins); assay type: biochemical; conditions: relative to DMSO
Excerpt: as §1, §2

HeLa cells = test: Cell viability assay on HeLa cells; assay type: cell-based; conditions: Homo sapiens, 48h treatment
Method: (§3) 75 Cell culture - Wild-type HeLa and Kyoto HeLa cells stably expressing mCherry-H2B
(§4) 76 were maintained in DMEM+L-Glutamine (Gibco, Life Technologies, USA)
(§5) 77 supplemented with 5% fetal calf serum (FCS) (Gibco) and penicillin-streptomycin (100
78 U/ml - 100 µg/ml) (Gibco). […]
87 Cell viability assays - Compounds viability upon 48h treatment with the compounds was
88 assessed as described 4. Data were plotted with Prism 7® and analyzed by non-linear
89 regression. Comparison of single curve fitting to all data set within an experiment was
90 performed with the extra sum-of-squares F-test to determine P values. […]

zebrafish embryos = assay type: in vivo; conditions: 10 µM (effective dose)
Method: Implantation of HCT116 cells into zebrafish embryos were carried out essentially as previously described. Briefly, HCT116 cells were cultured in McCoy’s medium supplemented with 10% FCS and penicillin/streptomycin until ~80% confluence, then labeled for 30 min at 37 °C in 6 μg/mL 1,1′-dioctadecyl-3,3,3′,3′-tetramethylindocarbocyanine perchlorate (DiI, Sigma) in PBS followed by washing 3x in PBS. Labeled cells were implanted in the perivitelline space of 48 hours post-fertilization (hpf) wildtype (AB) zebrafish embryos, kept from the 1-cell stage in 1-phenyl-2-thiourea (PTU)-containing E3-water. […] As control, embryos were incubated in PTU-E3 with 0.1% DMSO (vehicle). Tumor-bearing embryos were incubated at 36 °C for three days and the change in tumor volume was evaluated as the size of the tumors at three days post-implantation (3 dpi) relative to the size immediately after implantation (0 dpi). Metastasis was evaluated at 3 dpi as the number of tumor cells present in the caudal hematopoietic plexus, the main metastatic site for tumors implanted in the perivitelline space.

[1] = test system: U2OS Tet-OFF cells expressing HA-CDC25A; test: Cell viability of U2OS Tet-OFF cells overexpressing HA-CDC25A; assay type: cell-based; conditions: grown in the absence of tetracycline (HA-CDC25A induced)
Method: 65 Enzymatic assays - CDC25A, CDC25B and CDC25C were appropriately diluted in 10
66 mM Tris-HCl pH 8.0, 50 mM NaCl and assayed in 20 mM Tris-HCl pH 8.0, 75 mM
67 NaCl, 0.5 mM EGTA, 1 mM DTT, 0.1 mg/ml BSA and defined concentrations of
68 compounds. Reactions were started by addition of the substrate OMFP (0.1 mM). Assays
69 were carried out at room temperature in duplicate or triplicate using transparent-bottom,
70 V-shaped 96 well plates and read at defined intervals on a Molecular Devices
71 SpectraMax microplate reader (ex: 490 nm / em: 525 nm). IC50 and kinetic parameters
72 calculated from Lineweaver-Burk double-reciprocal plots of the data were obtained using
73 GraphPad Prism software.
as §3, §4, §5
78 U/ml - 100 µg/ml) (Gibco). A549 and Colo741 were grown and maintained like HeLa
79 cells but with 10% FCS. HCT116 were maintained in McCoy’s medium supplemented
80 with 10% FCS and penicillin-streptomycin. U2OS-Tet-OFF cells expressing HA-CDC25
81 were grown and maintained in DMEM+L-Glutamine, 10% Tet-free FCS and penicillin- […]
88 assessed as described 4. Data were plotted with Prism 7® and analyzed by non-linear […]

O=C1C=C(c2ccc(O)cc2O)C(=O)c2c(O)cccc21 [UPD-140, 2-(2′,4′-dihydroxyphenyl)-8-hydroxy-1,4-naphthoquinone] was tested, and the “remaining activity (%)” value (DUSP22; UPD-140 1.5 µM) was 90 ± 4%, the “remaining activity (%)” value (MKP5 (DUSP10); UPD-140 1.5 µM) was 109% and the “remaining activity (%)” value (PP1a; UPD-140 1.5 µM) was 89 ± 2%. For the same compound, the “remaining activity (%)” value (PP2A; UPD-140 1.5 µM) was 95 ± 2%, the “remaining activity (%)” value (PTPN1 (PTP1B); UPD-140 1.5 µM) was 95 ± 5% and the “remaining activity (%)” value (PTPN11 (SHP-2); UPD-140 1.5 µM) was 96 ± 2%. For the same compound, the “remaining activity (%)” value (PTPN2 (TCPTP); UPD-140 1.5 µM) was 87 ± 8%, the “remaining activity (%)” value (PTPN22; UPD-140 1.5 µM) was 99 ± 5% and the “remaining activity (%)” value (PTPN4 (MEG1); UPD-140 1.5 µM) was 87 ± 1%. The “remaining activity (%)” value (PTPN6 (SHP-1); UPD-140 1.5 µM) was 78 ± 2%, the “remaining activity (%)” value (PTPN7 (HePTP); UPD-140 1.5 µM) was 95% and the “remaining activity (%)” value (PTPN9 (MEG2); UPD-140 1.5 µM) was 89%. For the same compound, the “remaining activity (%)” value (PTPRC (CD45); UPD-140 1.5 µM) was 103 ± 2%, the “remaining activity (%)” value (TMDP (DUSP13); UPD-140 1.5 µM) was 105 ± 4% and the “remaining activity (%)” value (VHR (DUSP3); UPD-140 1.5 µM) was 106 ± 4%. The IC50 (HeLa cells) was 1200 nM and the “tolerability / overt toxicity” value (zebrafish embryos) was “well tolerated”.

O=C1C(c2ccc(O)cc2O)=CC(=O)c2c(O)cccc21 [UPD-176, 5-hydroxy-2-(2,4-dihydroxyphenyl)naphthalene-1,4-dione] was tested, and the IC50 (HeLa cells) was 1080 nM, the “sensitivity of CDC25A overexpressing cells (viability)” value [1] was “remained sensitive” and the “tolerability / overt toxicity” value (zebrafish embryos) was “well tolerated”.

In the case of COc1cccc(SC2=CC(=O)c3cccc(O)c3C2=O)c1 [UPD-795, 2-(3-methoxyphenylthio)-8-hydroxynaphthalene-1,4-dione], the “remaining activity (%)” value (DUSP22; UPD-795 1 µM) is reported as 92 ± 3%, the “remaining activity (%)” value (MKP5 (DUSP10); UPD-795 1 µM) is reported as 107 ± 1% and the “remaining activity (%)” value (PP1a; UPD-795 1 µM) is reported as 88 ± 1%. For the same compound, the “remaining activity (%)” value (PP2A; UPD-795 1 µM) was 94 ± 1%, the “remaining activity (%)” value (PTPN1 (PTP1B); UPD-795 1 µM) was 94 ± 7% and the “remaining activity (%)” value (PTPN11 (SHP-2); UPD-795 1 µM) was 91 ± 14%. For the same compound, the “remaining activity (%)” value (PTPN2 (TCPTP); UPD-795 1 µM) was 99 ± 2%, the “remaining activity (%)” value (PTPN22; UPD-795 1 µM) was 98 ± 1% and the “remaining activity (%)” value (PTPN4 (MEG1); UPD-795 1 µM) was 94 ± 1%. For the same compound, the “remaining activity (%)” value (PTPN6 (SHP-1); UPD-795 1 µM) was 80 ± 3%, the “remaining activity (%)” value (PTPN7 (HePTP); UPD-795 1 µM) was 87 ± 2% and the “remaining activity (%)” value (PTPN9 (MEG2); UPD-795 1 µM) was 85 ± 5%. For the same compound, the “remaining activity (%)” value (PTPRC (CD45); UPD-795 1 µM) was 97 ± 2%, the “remaining activity (%)” value (TMDP (DUSP13); UPD-795 1 µM) was 100% and the “remaining activity (%)” value (VHR (DUSP3); UPD-795 1 µM) was 108 ± 4%.
